Measured values taken from PubChem BioAssay (NCI).
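Each compound was tested at five concentrations against cells in 96-well plates for 48 hours. Here, GI50 denotes the concentration required for 50% inhibition of growth. Definition used: TGI = concentration required for complete inhibition of growth.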

Legend:
Experiment in all cases: NCI-60 cell line screen, 48 h
HOP-62 NSCLC = test system: HOP-62 NSCLC
HOP-92 NSCLC = test system: HOP-92 NSCLC
CAKI-1 renal = test system: CAKI-1 renal
M14 melanoma = test system: M14 melanoma
RPMI-8226 leukemia = test system: RPMI-8226 leukemia
HL-60(TB) leukemia = test system: HL-60(TB) leukemia
KM12 colon = test system: KM12 colon
SK-MEL-2 melanoma = test system: SK-MEL-2 melanoma
SNB-75 CNS = test system: SNB-75 CNS
HS 578T breast = test system: HS 578T breast

SMILES | TGI (HOP-62 NSCLC) [µM] | TGI (HOP-92 NSCLC) [µM] | TGI (CAKI-1 renal) [µM] | TGI (M14 melanoma) [µM] | TGI (RPMI-8226 leukemia) [µM] | TGI (HL-60(TB) leukemia) [µM] | TGI (KM12 colon) [µM] | TGI (SK-MEL-2 melanoma) [µM] | TGI (SNB-75 CNS) [µM] | TGI (HS 578T breast) [µM] | GI50 (HOP-62 NSCLC) [µM] | GI50 (CAKI-1 renal) [µM] | GI50 (M14 melanoma) [µM] | GI50 (KM12 colon) [µM] | GI50 (SK-MEL-2 melanoma) [µM] | GI50 (SNB-75 CNS) [µM]
C[C@]12CCC(=O)C=C1CC[C@@H]1[C@@H]2CC[C@]2(C)C(=O)/C(=C\c3ccccc3)C[C@@H]12 | > 100 | > 86.8 | > 100 | > 66.2 | > 26.1 | > 50.5 | > 64.3 | 46.1 | > 100 |  |  |  |  |  |  | 
COC(=O)c1cc(/C=C2\Cc3cc4c(cc3C2=O)CCC4)cc2c1CCC2 | > 100 |  | > 100 | > 100 | > 100 | > 100 | > 100 | > 100 | > 100 | > 100 |  |  |  |  |  | 
COc1cc(C2SC(N)=Nc3c2c(C)nn3C(=O)Cc2ccccc2)ccc1O (configuration not stated) | > 100 |  | > 100 | > 100 | > 100 | > 100 | > 100 |  | 75.2 | > 100 |  |  |  |  |  | 
O=C(Nc1ccc(F)cc1)c1cc2ccc(O)cc2oc1=Nc1cccc(F)c1 | > 100 |  | > 100 |  | > 100 | 83 | > 100 | > 100 |  |  |  |  |  |  |  | 
O=C1C=Cc2c(I)sc(I)c21 | > 100 | 33 | 33.3 | 75.8 |  |  | 50 | 64.4 | 87.4 |  |  |  |  |  |  | 
Cc1ccc(C(=O)Nc2ccc(CP(=O)(O)O)cc2)cc1NC(=O)Nc1cc(C(=O)Nc2ccc(CP(=O)(O)O)cc2)ccc1C | > 100 |  | > 100 | > 100 | > 100 | > 100 | > 100 | > 100 | > 100 | > 100 |  |  |  |  |  | 
Clc1ccc(N=Cc2cc3cc(Br)ccc3nc2Cl)cc1 |  | > 50 | > 50 | > 50 | 38.4 | 46.4 | > 50 | 48.3 | > 50 |  |  |  |  |  |  | 
CCC1CCN=C(Cn2cc(C)c(=O)[nH]c2=O)N1 (configuration not stated) | > 100 | > 100 |  | > 100 |  |  |  | > 100 | > 100 | > 100 |  |  |  |  |  | 
N#CC(C#N)=Cc1ccc(-c2ccc(-c3nc4ccccc4s3)cc2)s1 | 34.2 |  | 47.4 | 96.2 |  |  | 78.5 | > 100 | > 100 |  | 13 | 20.9 | 29.3 | 19.9 | 33.1 | 37.5
CCC(C)(C)c1ccc(Oc2cccc(C(=O)O)c2)cc1 | > 100 |  | > 100 | > 100 | 65.4 | > 100 | > 100 | > 100 | > 100 | > 100 |  |  |  |  |  | 
Oc1ccc2c3c1OC1c4[nH]c5c(c4CC4(O)C(C2)N(CC2CC2)CC[C@]314)CC1(O)C2Cc3ccc(O)c4c3[C@@]1(CCN2CC1CC1)C5O4 (some centres not stated) | > 100 | 85 | > 100 | 32 | 60.8 | 41.4 | 32.2 | 44.8 |  |  |  |  |  |  |  | 
CC1CC(=O)NC2CC1C2(C)C (configuration not stated) |  | > 100 |  | > 100 | > 100 | > 100 | > 100 | > 100 | > 100 | > 100 |  |  |  |  |  | 
CCOC(=O)c1cc(C2(OC)CCN(Cc3ccccc3)C2=O)c(-c2cc(C)no2)[nH]1 (configuration not stated) | > 100 | > 100 | > 100 | > 100 | > 100 |  | > 100 | > 100 | > 100 | > 100 |  |  |  |  |  | 
COc1ccc(C2S/C(=C\c3cccc([N+](=O)[O-])c3)C(=O)N2NC(=O)Cc2ccccc2)cc1 (configuration not stated) | > 100 | > 100 | > 100 | > 100 | > 100 | > 100 | > 100 | > 100 | > 100 |  |  |  |  |  |  | 
N=c1c2ccccc2nc2oc3ccc(Cl)cc3n12 | 19.2 |  | 37.5 | 56.9 | 23.5 |  | > 100 | 51.3 | 23.6 | 20.3 |  |  |  |  |  | 
Cc1c(C)c2ccc(O)cc2[nH]c1=O | > 100 | > 100 | > 100 | > 100 | > 100 |  | > 100 | > 100 | > 100 |  |  |  |  |  |  | 
COc1ccc(N2C(=O)CC(c3c[nH]c4ccccc34)C2=O)cc1 (configuration not stated) | > 100 | > 100 | > 100 | > 100 | > 100 | > 100 |  | > 100 |  | > 100 |  |  |  |  |  | 
CC(C)=CCC/C(C)=C/CC/C(C)=C/CC/C(C=O)=C/CC/C(C)=C\CC/C(C)=C/CC/C(C)=C/CC/C(C)=C/CC1=CC(=O)C=CC1=O | > 100 | > 100 | 74.3 | > 100 | > 100 |  | > 100 | > 100 | 96.1 | > 100 |  |  |  |  |  | 
C=CCn1c(=S)sc2c(=O)[nH]cnc21 | > 100 | > 100 | > 100 | > 100 |  | > 100 | > 100 | > 100 | > 100 |  |  |  |  |  |  | 
N#C/C(N)=C(\C#N)N=CNc1ccccc1N | > 100 |  | > 100 | > 100 | > 100 | > 100 | > 100 | > 100 | > 100 | > 100 |  |  |  |  |  | 
CO[C@H]1C[C@H](O[C@H]2CC[C@]3(C=O)[C@H]4CC[C@]5(C)[C@@H](C6=CC(=O)OC6)CC[C@]5(O)[C@@H]4CC[C@]3(O)C2)O[C@H](C)[C@H]1O[C@@H]1O[C@H](CO[C@@H]2O[C@H](CO)[C@@H](O)[C@H](O)[C@H]2O)[C@@H](O)[C@H](O)[C@H]1O | 0.0388 | 0.367 | 0.0456 | 0.312 |  | 0.2 | 0.515 | 0.907 | 0.437 | 0.518 |  |  |  |  |  | 
COc1ccc(-n2nnnc2C2(Nc3ccccc3)CCN(Cc3ccccc3)CC2)cc1 | 56.2 |  |  | 32 | 48.5 | 8.14 | 18.8 |  | 44.7 | 28.8 |  |  |  |  |  | 
O=C(O)C1CCCN1Cc1ccc2c(c1)OCO2 (configuration not stated) | > 100 | > 100 | > 100 | > 100 | > 100 |  | > 100 | > 100 | > 100 | > 100 |  |  |  |  |  | 
